{
  "source": "patent US12303547B2",
  "about": "“Compound, use, pharmaceutical composition, method of diagnosis, method of treatment, and method of transportation and/or internalization of a compound into eukaryotic cells” (priority 2018, dated 2025)",
  "key": {"[1]": {"test_system": "SK-MEL-28 human melanoma cells", "assay": "MTT cell viability assay, SK-MEL-28", "type": "cell-based", "details": "SK-MEL-28, 48 h, increasing concentrations; Amblyomin-X 20 μM", "source_text": "(§1) Human melanomas (SK-MEL-28), pancreatic adenocarcinomas (MIA-PaCa-2) and murine renal adenocarcinoma cells (RENCA) were obtained and cultured according to the instructions of the American Type Culture Collection (ATCC, Manassas, VA). Human dermal fibroblast cells (HDFa) were obtained from Invitrogen. Endothelial cells were obtained from human umbilical veins (HUVECs), as previously described^11. The study received prior approval from the Research Ethics Committee and the free and informed consent form was obtained from female donors. HUVECs were seeded in T75 flasks previously covered with 2% gelatin and cultured in RPMI medium, supplemented with 10% fetal bovine serum, L-glutamine (2 mM), streptomycin sulfate ([…]), penicillin (100 U/ml) sodium pyruvate ([…]), 2-mercaptoethanol ([…]), ECGF ([…]) and heparin (45 μg/ml), pH 7.4. In all experiments, HUVEC were used in the second or third passages. All cell lines were routinely cultured in a humidified 5% CO2 incubator at 37° C.\n(§2) Cell viability was measured by the 3-(4,5-dimethylthiazol-2-yl)-2,5-diphenyltetrazolium bromide (MTT) assay. […] Afterwards, the medium was discarded, the dark blue crystalline formazan product was dissolved in […] of dimethyl sulfoxide (DMSO), and the absorbance was measured in a Spectra MAX 190 microplate reader (Molecular Devices, Sunnyvale, USA) at 540 nm."}, "[2]": {"test_system": "MIA PaCa-2 pancreatic adenocarcinoma cells", "assay": "MTT cell viability assay, MIA PaCa-2", "type": "cell-based, human", "details": "MIA PaCa-2, 48 h, increasing concentrations; Amblyomin-X 20 μM", "source_text": "as §1, §2"}, "[3]": {"test_system": "murine renal adenocarcinoma cells (RENCA)", "assay": "MTT cell viability assay, RENCA", "type": "cell-based", "details": "48 h, preliminary results", "source_text": "as §1, §2"}, "[4]": {"test_system": "human dermal fibroblasts (HDFa)", "assay": "MTT cell viability assay, HDFa", "type": "cell-based", "details": "48 h, preliminary results", "source_text": "as §1, §2"}, "[5]": {"test_system": "human umbilical vein endothelial cells (HUVEC)", "assay": "MTT cell viability assay, HUVEC", "type": "cell-based", "details": "48 h, preliminary results", "source_text": "as §1, §2"}, "SK-MEL-28": {"test_system": "SK-MEL-28", "assay": "Cell uptake study with Alexa Fluor 488 labelled molecules, SK-MEL-28", "type": "cell-based, human", "details": "for Uptake by tumor cells: Alexa Fluor 488 labelled", "source_text": "(§3) The compound of the invention (C-ter) was chemically coupled with the amine reactive dye (Alexa fluor 488 […] tetra fluorophenyl ester (TFP)) using the Microscale Alexa Fluor® 488 Protein Labeling kit (Molecular Probes), following the manufacturer's instructions. Other entities (Amblyomin-X and its fragment called Kunitz domain) were also modified as described above, for comparative analysis.\n(§4) The dye-conjugated protein was named 488-Amblyomin-X. Briefly, cells (10^4 cells/well) were seeded into 96-well plates. […] The cells were then incubated with Alexa Fluor 555 transferrin (100 μg/ml), the cholera toxin B subunit Alexa Fluor 555 (50 μg/ml) or Alexa Fluor 555 dextran (1 mg/ml) in binding medium to 37° C. for 20 min. Nuclei were stained with Hoechst 332. Then, green and red fluorescence were monitored using a Molecular Devices ImageXpress Micro Confocal plate scanning microscope (Molecular Devices, Sunnyvale, CA) or using LSM 510 Meta confocal microscope (Zeiss, Jena, Germany) followed by evaluation of overlap between 488-Amblyomin-X and endocytosis markers using MetaXpress software (Molecular Devices, Sunnyvale, CA)."}, "Mia PaCa-2": {"test_system": "Mia PaCa-2", "assay": "Cell uptake study with Alexa Fluor 488 labelled molecules, Mia PaCa-2", "type": "cell-based, human", "details": "for Uptake by tumor cells: Alexa Fluor 488 labelled", "source_text": "as §3, §4"}, "HUVEC": {"test_system": "HUVEC", "assay": "Cell uptake study (confocal), HUVEC", "type": "cell-based, human", "details": "4 h, preliminary experiments", "source_text": "as §3\n(§5) The dye-conjugated protein was named 488-Amblyomin-X. Briefly, cells (10^4 cells/well) were seeded into 96-well plates. Once stabilized, the culture medium was replaced and cells were incubated with 488-Amblyomin-X (20 μM) at 37° C. for 2 h, 4 h and 24 h. The cells were then incubated with Alexa Fluor 555 transferrin (100 μg/ml), the cholera toxin B subunit Alexa Fluor 555 (50 μg/ml) or Alexa Fluor 555 dextran (1 mg/ml) in binding medium to 37° C. for 20 min. Nuclei were stained with Hoechst 332. Then, green and red fluorescence were monitored using a Molecular Devices ImageXpress Micro Confocal plate scanning microscope (Molecular Devices, Sunnyvale, CA) or using LSM 510 Meta confocal microscope (Zeiss, Jena, Germany) followed by evaluation of overlap between 488-Amblyomin-X and endocytosis markers using MetaXpress software (Molecular Devices, Sunnyvale, CA)."}, "HDFa": {"test_system": "HDFa", "assay": "Cell uptake study (confocal), HDFa", "type": "cell-based, human", "details": "4 h, preliminary experiments", "source_text": "as §3, §5"}, "Tumor cell lines": {"test_system": "Tumor cell lines", "assay": "Co-localization with endocytosis and intracellular markers", "type": "cell-based, human", "description": "as §5\nTumor cells were cultured in 96-well plates (10^4 cells/well) and treated with 488-Amblyomin-X (20 μM) to indicate times. Cells were washed twice with PHEM-glycine buffer (2 mM HEPES, 10 mM EGTA, 2 mM MgCl2, 60 mM Pipes, 100 mM glycine, pH 6.9) and fixed with 4% paraformaldehyde for 3 h at room temperature. The washing step was repeated and then the cells were incubated with a cell permeabilizing solution (0.1% Tween in PHEM) for 5 minutes at room temperature. Samples were washed and incubated with 1% BSA blocking solution for 30 minutes at room temperature. Next, the primary antibody was incubated overnight at 4° C.: (i) caveolin-1 anti-human mouse 1:100 (Santa Cruz Biotechnology, Inc., USA); (ii) 1:50 anti-human LAMP-2 rabbit (Abcam). […] Next, green and red fluorescence were monitored by a Molecular Devices ImageXpress Micro Confocal Plate Scanning Microscope (Molecular Devices, Sunnyvale, CA) followed by evaluation of overlap between 488-Amblyomin-X and endocytosis markers using MetaXpress software (Molecular Devices, Sunnyvale, CA) or vesicle interactions by Imaris software."}, "SK-MEL-28 cells": {"test_system": "SK-MEL-28 cells", "assay": "Role of PS in uptake (Na3VO4 or Annexin V pretreatment)", "type": "cell-based, human", "description": "To investigate the role of PS in C-ter uptake, cells were pretreated with Annexin V (5 μg/mL) or Na3VO4 (25 μM) and then incubated with fluorochrome-conjugated molecules for 4 hours."}, "HUVECs": {"test_system": "HUVECs", "assay": "Charge delivery capacity, uptake of Alexa 488 labelled peptides by HUVECs (HCS)", "type": "cell-based, human", "details": "for uptake by HUVECs (HCS): 10 μM; for detection within HUVECs (HCS): after 4 h, 0.5, 1, 10 and 20 μM", "description": "Endothelial cell culture was obtained from umbilical cords by digestion of umbilical cord veins with collagenase as described previously (19) with some modifications (20). Endothelial cells between the first and third passage were used for all experiments. Cells were seeded in 96-well culture plates (Advance, Greiner), special for immunofluorescence, at a density of 8×10^3 cells/well pre-coated with 2% (w/v) gelatin in EGM®-2 BulletKit® medium for HUVECs (Lonza, CC-3162) allowed to seed at 37° C. in a humidified atmosphere of 5% CO2. Cells were treated and incubated in RPMI medium containing 1% fetal bovine serum (FBS) and Alexa-Fluor 488 labeled peptides (C-ter/Seq ID No 1, P4/Seq ID No 2, or P4-Cter/Seq ID No 3) at different concentrations and times. After treatment, the cells were fixed with 4% paraformaldehyde and analyzed in ImageXpress Micro Confocal High-Content Imaging (HCS, Molecular Devices) in Widefield mode and the number of vesicles containing the peptides in the cells was quantified using MetaXpress High-Content Image Acquisition and Analysis Software (Molecular Devices).\nPeptides Cter, P4 and P4-C-ter were labeled with cell-impermeable Alexa Fluor 488. The capacity of P4 and P4-Cter peptides bound to Alexa 488 by HUVECs at 1 h, 2 h and 4 h was analyzed using different concentrations: 0.5 μM, 1 μM, 10 μM and 20 μM (FIG. 9). This was compared with uptake of C-ter peptide linked to Alexa 488 (concentration of 0.5 μM, 1 μM, 10 μM and 20 μM) after 4 hours, as shown in previous experiments for SK-MEL-28 (FIG. 3)."}},
  "note": "Where no end group is shown, it is not given here.",
  "data": [
    {"molecule": "C-ter: polypeptide of SEQ ID No. 1, 50 amino acids, carboxy-terminal end of Amblyomin-X, prepared by chemical synthesis (EEQTHFHFESPKLISFKVQDYWILNDIMKKNLTGISLKSEEEDADSGEID)", "values": [
      {"measurement": "cell viability (MTT)", "setting": "[1]", "value": "no change was observed"},
      {"measurement": "cell viability (MTT)", "setting": "[2]", "value": "no change was observed"},
      {"measurement": "cell viability (MTT)", "setting": "[3]", "value": "decreasing the viability of RENCA by 1 μM"},
      {"measurement": "cell viability (MTT)", "setting": "[4]", "value": "no change was observed"},
      {"measurement": "cell viability (MTT)", "setting": "[5]", "value": "no change was observed"},
      {"measurement": "cells positive for nuclear translocation", "setting": "SK-MEL-28; SK-MEL-28", "value": "few cells were positive"},
      {"measurement": "uptake by cells (green fluorescence, confocal)", "setting": "SK-MEL-28; SK-MEL-28, 20 μM, 4 h, Alexa Fluor 488 complexed", "value": "taken up"},
      {"measurement": "Uptake by tumor cells", "setting": "SK-MEL-28; SK-MEL-28, 0.25 h", "value": "30.84 ± 17.2"},
      {"measurement": "Uptake by tumor cells", "setting": "SK-MEL-28; SK-MEL-28, 0.5 h", "value": "35.56 ± 21.09"},
      {"measurement": "Uptake by tumor cells", "setting": "SK-MEL-28; SK-MEL-28, 1 h", "value": "62.17 ± 11.20"},
      {"measurement": "Uptake by tumor cells", "setting": "SK-MEL-28; SK-MEL-28, 2 h", "value": "558.48 ± 189.00"},
      {"measurement": "Uptake by tumor cells", "setting": "SK-MEL-28; SK-MEL-28, 4 h", "value": "1210.74 ± 379.14"},
      {"measurement": "cells positive for nuclear translocation", "setting": "Mia PaCa-2; MIA PaCa-2", "value": "few cells were positive"},
      {"measurement": "Uptake by tumor cells", "setting": "Mia PaCa-2; Mia PaCa-2, 0.25 h", "value": "3.45 ± 1.34"},
      {"measurement": "Uptake by tumor cells", "setting": "Mia PaCa-2; Mia PaCa-2, 0.5 h", "value": "4.84 ± 1.95"},
      {"measurement": "Uptake by tumor cells", "setting": "Mia PaCa-2; Mia PaCa-2, 1 h", "value": "13.74 ± 7.15"},
      {"measurement": "Uptake by tumor cells", "setting": "Mia PaCa-2; Mia PaCa-2, 2 h", "value": "604.99 ± 24.47"},
      {"measurement": "Uptake by tumor cells", "setting": "Mia PaCa-2; Mia PaCa-2, 4 h", "value": "976.55 ± 74.55"},
      {"measurement": "uptake by non-tumor cells", "setting": "HUVEC", "value": "uptake by these cells"},
      {"measurement": "uptake by non-tumor cells", "setting": "HDFa", "value": "uptake by these cells"},
      {"measurement": "overlap with endocytosis markers (dextran, CTxB, transferrin)", "setting": "Tumor cell lines; Alexa Fluor 555 labelled markers, shortest treatment time", "value": "the highest were with CTxB"},
      {"measurement": "co-localization with late endosomal markers", "setting": "Tumor cell lines; Lyso Tracker, LAMP-2", "value": "found in co-localization with late endosomal markers, Lyso Tracker and LAMP-2"},
      {"measurement": "co-localization with cav-1", "setting": "Tumor cell lines; indirect immunofluorescence", "value": "occurred mainly after 4 hours of treatment"},
      {"measurement": "uptake after pretreatment with Na3VO4", "setting": "SK-MEL-28 cells; SK-MEL-28, Na3VO4 pretreatment, then 4 h", "value": "not affected"},
      {"measurement": "tumor cell penetration after pretreatment with Na3VO4 or Annexin V", "setting": "SK-MEL-28 cells; pretreatment with Na3VO4 or Annexin V", "value": "retains its ability to penetrate tumor cells"}
    ]},
    {"molecule": "P4-Alexa 488: peptide P4 (SEQ ID No. 2) labeled with Alexa Fluor 488 (YAIGYSSKDYK; also: Alexa Fluor 488 label) [reference compound]", "values": [
      {"measurement": "uptake by HUVECs (HCS)", "setting": "HUVECs; 4 h", "value": "poorly detected"},
      {"measurement": "detection within HUVECs (HCS)", "setting": "HUVECs", "value": "not detected within cells"}
    ]},
    {"molecule": "P4-Cter-Alexa488: hybrid peptide P4-Cter (SEQ ID No. 3) labeled with Alexa Fluor 488 (conjugate, also: Alexa Fluor 488 label) YAIGYSSKDYKEEQTHFHFESPKLISFKVQDYWILNDIMKKNLTGISLKSEEEDADSGEID", "values": [
      {"measurement": "uptake by HUVECs (HCS)", "setting": "HUVECs; 1 h", "value": "efficiently absorbed"},
      {"measurement": "detection within HUVECs (HCS)", "setting": "HUVECs", "value": "captured and quantified"}
    ]}
  ]
}
